Measured values reported in patent US6875760B2 (Novo Nordisk A/S, priority 1999, dated 2005).

Biological target: T1, human glucagon receptor (Homo sapiens, UniProt P47871)
T1 construct: expressed in transfected cells; host or cells: BHK (baby hamster kidney) cells
Assay: Glucagon Binding Assay (III)
Conditions: BHK cell membranes, WGA SPA beads, 125I-glucagon; read-out: Glu Bd Assay (III) IC50
Protocol: BHK (baby hamster kidney cell line) cells were transfected with the human glucagon receptor and a membrane preparation of the cells was prepared.
All steps in the membrane preparation were kept on ice or performed at 4° C. BHK cells were harvested and centrifuged. […] The pellet was resuspended in homogenisation buffer, homogenised 2×10 sec (Polytron) and additional homogenisation buffer was added. […] (Polytron).
The glucagon binding assay was carried out in opti plates (Polystyrene Microplates, Packard). […] Finally 50 μL WGA beads containing 1 mg beads were transferred to the well. The assay was incubated for 4 hours on a shaker and then settled for 8-48 hours. The opti plates were counted in a Topcounter. Non-specific binding was determined with 500 nM of glucagon.

T1 sequence (P47871 26-477): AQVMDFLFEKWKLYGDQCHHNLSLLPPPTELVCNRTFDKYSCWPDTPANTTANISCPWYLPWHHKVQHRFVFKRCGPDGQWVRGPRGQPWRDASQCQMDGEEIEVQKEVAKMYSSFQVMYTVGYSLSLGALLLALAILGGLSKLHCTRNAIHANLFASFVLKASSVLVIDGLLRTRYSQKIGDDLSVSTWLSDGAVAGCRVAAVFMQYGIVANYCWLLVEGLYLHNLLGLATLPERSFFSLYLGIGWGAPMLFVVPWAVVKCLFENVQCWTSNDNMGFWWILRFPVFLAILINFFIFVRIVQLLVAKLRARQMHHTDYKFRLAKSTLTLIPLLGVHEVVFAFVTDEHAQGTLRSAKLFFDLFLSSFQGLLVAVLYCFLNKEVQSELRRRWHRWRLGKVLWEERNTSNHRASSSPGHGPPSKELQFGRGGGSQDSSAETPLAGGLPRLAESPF

| Structure (SMILES) | IC50 |
| --- | --- |
| CC1CCCC(N(Cc2ccc(C(=O)NCCC(=O)O)cc2)C(=O)Nc2ccc(Oc3ccccc3)cc2)C1 (centres unmarked) [Example 44, 3-{4-[1-(3-Methylcyclohexyl)-3-(4-phenoxyphenyl)ureidomethyl]benzoylamino}propionic acid] | 819 nM |
| CC1CCC(N(Cc2ccc(C(=O)NCCC(=O)O)cc2)C(=O)Nc2ccc(OCc3ccccc3)cc2)CC1 (centres unmarked) [Example 45, 3-{4-[3-(4-Benzyloxyphenyl)-1-(4-methylcyclohexyl)ureidomethyl]benzoylamino}propionic acid] | 1190 nM |
| CCc1ccc(NC(=O)N(CCc2ccc(Cl)c(Cl)c2)Cc2ccc(C(=O)NCCC(=O)O)cc2)cc1 [Example 46, 3-{4-[1-[2-(3,4-Dichlorophenyl)ethyl)-3-(4-ethylphenyl)ureidomethyl]benzoylamino}propionic acid] | 456 nM |
| O=C(O)CCNC(=O)c1ccc(CN(CCc2ccc(Cl)c(Cl)c2)C(=O)Nc2ccc(OCc3ccccc3)cc2)cc1 [Example 47, 3-{4-[3-(4-Benzyloxyphenyl)-1-[2-(3,4-dichlorophenyl)ethyl]ureidomethyl]benzoylamino}propionic acid] | 1100 nM |
| CC1CCCCC1N(Cc1ccc(C(=O)NCCC(=O)O)cc1)C(=O)Nc1ccc(Oc2ccccc2)cc1 (centres unmarked) [Example 48, 3-{4-[1-(2-Methylcyclohexyl)-3-(4-phenoxyphenyl)ureidomethyl]benzoylamino}propionic acid] | 1080 nM |
| CCCCOC(=O)c1ccc(NC(=O)N(Cc2ccc(C(=O)NCCC(=O)O)cc2)CC(C)c2ccccc2)cc1 (centres unmarked) [Example 49, 4-[3-[4-(2-Carboxyethylcarbamoyl)benzyl]-3-(2-phenylpropyl)ureido]benzoic acid butyl ester] | 1320 nM |
| CC(C)c1ccc(NC(=O)N(Cc2ccc(C(=O)NCCC(=O)O)cc2)CC(C)c2ccccc2)cc1 (centres unmarked) [Example 50, 3-{4-[3-(4-Isopropylphenyl)-1-(2-phenylpropyl)ureidomethyl]benzoylamino}propionic acid] | 564 nM |
| CCCCOC(=O)c1ccc(NC(=O)N(CCc2ccc(Cl)cc2)Cc2ccc(C(=O)NCCC(=O)O)cc2)cc1 [Example 51, 4-{3-[4-(2-Carboxyethylcarbamoyl)benzyl]-3-[2-(4-chlorophenyl)ethyl]ureido}benzoic acid butyl ester] | 721 nM |
| CC(C)c1ccc(NC(=O)N(CCc2ccc(Cl)cc2)Cc2ccc(C(=O)NCCC(=O)O)cc2)cc1 [Example 52, 3-{4-[1-[2-(4-Chlorophenyl)ethyl]-3-(4-isopropylphenyl)ureidomethyl]benzoylamino}propionic acid] | 383 nM |
| O=C(O)CCNC(=O)c1ccc(CN(CC(c2ccccc2)c2ccccc2)C(=O)Nc2ccc(Oc3ccccc3)cc2)cc1 [Example 53, 3-{4-[1-(2,2-Diphenylethyl)-3-(4-phenoxyphenyl)ureidomethyl]benzoylamino}propionic acid] | 505 nM |
| CCCCOC(=O)c1ccc(NC(=O)N(Cc2ccc(C(=O)NCCC(=O)O)cc2)CC(c2ccccc2)c2ccccc2)cc1 [Example 54, 4-[3-[4-(2-Carboxyethylcarbamoyl)benzyl]-3-(2,2-diphenylethyl)ureido]benzoic acid butyl ester] | 337 nM |
| CC(C)c1ccc(NC(=O)N(Cc2ccc(C(=O)NCCC(=O)O)cc2)CC(c2ccccc2)c2ccccc2)cc1 [Example 55, 3-{4-[1-(2,2-Diphenylethyl)-3-(4-isopropylphenyl)ureidomethyl]benzoylamino}propionic acid] | 1000 nM |
| CC(C)c1ccc(NC(=O)N(Cc2ccc(C(=O)NCCC(=O)O)cc2)C2CCC(C(C)(C)C)CC2)cc1 (centres unmarked) [Example 56, 3-{4-[1-(4-tert-Butylcyclohexyl)-3-(4-isopropylphenyl)ureidomethyl]benzoylamino}propionic acid] | 59 nM |
| CC(C)(C)C1CCC(N(Cc2ccc(C(=O)NCCC(=O)O)cc2)C(=O)Nc2ccc(Oc3ccccc3)cc2)CC1 (centres unmarked) [Example 57, 3-{4-[1-(4-tert-Butylcyclohexyl)-3-(4-phenoxyphenyl)ureidomethyl]benzoylamino}propionic acid] | 90 nM |
| CC(C)(C)C1CCC(N(Cc2ccc(C(=O)NCCC(=O)O)cc2)C(=O)Nc2ccc(SC(F)(F)F)cc2)CC1 (centres unmarked) [Example 58, 3-{4-[1-(4-tert-Butylcyclohexyl)-3-(4-trifluoromethylsulfanylphenyl)ureidomethyl]benzoylamino}propionic acid] | 139 nM |
| COc1ccc(NC(=O)N(Cc2ccc(C(=O)NCCC(=O)O)cc2)C2CCC(C(C)(C)C)CC2)cc1 (centres unmarked) [Example 59, 3-{4-[1-(4-tert-Butylcyclohexyl)-3-(4-methoxyphenyl)ureidomethyl]benzoylamino}propionic acid] | 3800 nM |

| Structure (SMILES) | IC50 |
| --- | --- |
| CC(=O)c1ccc(NC(=O)N(Cc2ccc(C(=O)NCCC(=O)O)cc2)C2CCC(C(C)(C)C)CC2)cc1 (centres unmarked) [Example 60, 3-{4-[3-(4-Acetylphenyl)-1-(4-tert-butylcyclohexyl)ureidomethyl]benzoylamino}propionic acid] | 83 nM |
| CCCCOC(=O)c1ccc(NC(=O)N(Cc2ccc(C(=O)NCCC(=O)O)cc2)C2CCC(C(C)(C)C)CC2)cc1 (centres unmarked) [Example 61, 4-{3-(4-tert-Butylcyclohexyl)-3-[4-(2-carboxyethylcarbamoyl)benzyl]ureido}benzoic acid butyl ester] | 48 nM |
| CC(C)Cc1ccc(NC(=O)N(Cc2ccc(C(=O)NCCC(=O)O)cc2)C2CCC(C(C)(C)C)CC2)cc1 (centres unmarked) [Example 62, 3-{4-[1-(4-tert-Butylcyclohexyl)-3-(4-isobutylphenyl)ureidomethyl]benzoylamino}propionic acid] | 39 nM |
| CC(C)(C)C1CCC(N(Cc2ccc(C(=O)NCCC(=O)O)cc2)C(=O)Nc2ccc(C(F)(F)F)cc2)CC1 (centres unmarked) [Example 63, 3-{4-[1-(4-tert-Butylcyclohexyl)-3-(4-trifluoromethylphenyl)ureidomethyl]benzoylamino}propionic acid] | 645 nM |
| CC1C(N(Cc2ccc(C(=O)NCCC(=O)O)cc2)C(=O)Nc2ccc(OC(F)(F)F)cc2)CC2CC1C2(C)C (centres unmarked) [Example 65, 3-{4-[3-(4-Trifluoromethoxyphenyl)-1-(2,6,6-trimethylbicyclo[3.1.1]hept-3-yl)ureidomethyl]benzoylamino}propionic acid] | 183 nM |
| CC(C)c1ccc(NC(=O)N(Cc2ccc(C(=O)NCCC(=O)O)cc2)C2CC3CC(C2C)C3(C)C)cc1 (centres unmarked) [Example 66, 3-{4-[3-(4-Isopropylphenyl)-1-(2,6,6-trimethylbicyclo[3.1.1]hept-3-yl)ureidomethyl]benzoylamino}propionic acid] | 267 nM |
| CC(C)(C)C1CCC(N(Cc2ccc(C(=O)NCCC(=O)O)cc2)C(=O)Nc2ccc([N+](=O)[O-])cc2)CC1 (centres unmarked) [Example 67, 3-{4-[1-(4-tert-Butylcyclohexyl)-3-(4-nitrophenyl)ureidomethyl]benzoylamino}propionic acid] | 891 nM |
| CC(C)(C)C1CCC(N(Cc2ccc(C(=O)NCCC(=O)O)cc2)C(=O)Nc2ccc(-c3ccc(C#N)cc3)cc2)CC1 (centres unmarked) [Example 68, 3-{4-[1-(4-tert-Butylcyclohexyl)-3-(4′-cyanobiphenyl-4-yl)ureidomethyl]benzoylamino}propionic acid] | 552 nM |
| CCCCOc1ccc(NC(=O)N(Cc2ccc(C(=O)NCCC(=O)O)cc2)C2CCC(C(C)(C)C)CC2)cc1 (centres unmarked) [Example 69, 3-{4-[3-(4-Butoxyphenyl)-1-(4-tert-butyl-cyclohexyl)ureidomethyl]benzoylamino}propionic acid] | 90 nM |
| CC(C)(C)C1CCC(N(Cc2ccc(C(=O)NCCC(=O)O)cc2)C(=O)Nc2ccc(C#N)c(C(F)(F)F)c2)CC1 (centres unmarked) [Example 70, 3-{4-[1-(4-tert-Butylcyclohexyl)-3-(4-cyano-3-trifluoromethylphenyl)ureidomethyl]benzoylamino}propionic acid] | 168 nM |
| CC(C)(C)C1CCC(N(Cc2ccc(C(=O)NCCC(=O)O)cc2)C(=O)Nc2ccc(F)c(C(F)(F)F)c2)CC1 (centres unmarked) [Example 71, 3-{4-[1-(4-tert-Butylcyclohexyl)-3-(4-fluoro-3-trifluoromethylphenyl)ureidomethyl]benzoylamino}propionic acid] | 124 nM |
| CC(C)(C)C1CCC(N(Cc2ccc(C(=O)NCCC(=O)O)cc2)C(=O)Nc2ccc(F)c(F)c2)CC1 (centres unmarked) [Example 72, 3-{4-[1-(4-tert-Butylcyclohexyl)-3-(3,4-difluorophenyl)ureidomethyl]benzoylamino}propionic acid] | 673 nM |
| CC(C)OC(=O)c1ccc(NC(=O)N(Cc2ccc(C(=O)NCCC(=O)O)cc2)C2CCC(C(C)(C)C)CC2)cc1 (centres unmarked) [Example 73, 4-{3-(4-tert-Butylcyclohexyl)-3-[4-(2-carboxyethylcarbamoyl)benzyl]ureido}benzoic acid isopropyl ester] | 245 nM |
| CC(C)(C)C1CCC(N(Cc2ccc(C(=O)NCCC(=O)O)cc2)C(=O)Nc2ccc(Cl)c(C(F)(F)F)c2)CC1 (centres unmarked) [Example 74, 3-{4-[1-(4-tert-Butylcyclohexyl)-3-(4-chloro-3-trifluoromethylphenyl)ureidomethyl]benzoylamino}propionic acid] | 61 nM |
| CCCC1CCC(N(Cc2ccc(C(=O)NCCC(=O)O)cc2)C(=O)Nc2ccc(OC(F)(F)F)cc2)CC1 (centres unmarked) [Example 75, 3-{4-[1-(4-Propylcyclohexyl)-3-(4-trifluoromethoxyphenyl)ureidomethyl]benzoylamino}propionic acid] | 177 nM |
| CCC[C@H]1CC[C@H](N(Cc2ccc(C(=O)NCCC(=O)O)cc2)C(=O)Nc2ccc(OC(F)(F)F)cc2)CC1 [Example 76, 3-{4-[1-(4-trans-Propylcyclohexyl)-3-(4-trifluoromethoxyphenyl)ureidomethyl]benzoylamino}propionic acid] | 135 nM |
